In patent US9266852B2, “Daidzein derivative, pharmaceutically acceptable salt and preparation method thereof, and pharmaceutical composition containing same” (ANHUI BIOCHEM BIO-PHARMACEUTICAL CO., LTD, priority 2011, dated 2016):
Where a name gives a salt, the structure may show the parent alone.

Assays:
[1] = Experiment of solubility: solvent equilibrium experiment in methanol, gravimetric analysis; type: physicochemical; conditions: for solubility (solvent equilibrium experiment): methanol, 25°C, at least 20 hours, gravimetric, approximate
Method: in the water bath at 25±5° C., the solvent equilibrium experiment was performed on the above materials for at least 20 hours by using 1 mL methanol, then the solution was filtered and dried in the air for 10 minutes, and after the solvent was evaporated under vacuum, the approximate solubilities of the above materials in the solvent was measured through gravimetric analysis, with results shown in table 1.

rat in vitro thrombosis = experiment: Anti-thrombosis experiment: rat in vitro thrombosis after oral administration (artery-jugular vein blood flow bypass method); type: in vivo, rat (Wistar, male)
Method: 1. Rat in vitro general artery-jugular vein blood flow in the bypass method (please refer to “Journal of Changchun University of Traditional Chinese Medicine”, 2011, Volume 27, Issue 4, Pages 514-518, Yunfei Sun, Min Shi, “Study on the Effect of Pueraria Injection on Thrombosis Formation, Cerebral Ischemia and Platelet Aggregation in Rats);
1. Experiment in vivo: the dose is 50 mg/kg, 100 mg/kg, 200 mg/kg, and the animals are administered intragastrically once daily at 1 ml/100 g […] for 3 consecutive days;
2. Positive control, the animals are administered with acetylsalicylic acid (produced by Northwest Second Synthetic Pharmaceutical Factory) at 45 mg/kg in the experiment in vivo.

[2] = system: whole blood in vitro thrombosis of normal rats; experiment: Anti-thrombosis experiment: whole blood in vitro thrombosis after in vitro administration (in vitro thrombosis instrument method); conditions: Rattus norvegicus, read-out: Thrombosis inhibition rates
Method: ii) Experimental animals: Wistar, which is a male rat outbreeding closed system, purchased from the Institute of Laboratory Animal Sciences, Chinese Academy of Medical Sciences, weighing 242±11.2 g, the animals are divided into 5 groups with 10 animals in each group.
Experiment in vitro: the dose is 1.56 mg/kg, 3.12 mg/kg, 6.25 mg/kg, and the animals are administered once directly.
Blank control, the animals are administered with the same volume of distilled water in the experiment in vivo; and administered with the same volume of saline in the experiment in vitro;

[3] = system: mice with hypoxia tolerance at normal pressure; experiment: Hypoxia tolerance of mice at normal pressure (survival time in closed jar); type: in vivo; conditions: for effect on hypoxia tolerance time, in words: conclusion from table 4, mice, intraperitoneal; for Survival times (X ± s) / Prolongation rates (survival time): mice; for Survival times (X ± s): 20 min after administration, n = 10, control group 22.5 ± 2.6; for Prolongation rates (survival time): versus control group
Method: 70 mice were taken and randomly divided into seven groups, except the blank group which was not administered and the saline group which was administered with the same volume of saline, the remaining five groups were respectively injected intraperitoneally with 25 mg/kg pueraria daidzein, 36 mg/kg compound of the example of the present application, 47 mg/kg 4,7-disubstituted daidzein, 36 mg/kg 4-substituted daidzein and 36 mg/kg USP compound (the converted dose of each compound is equivalent to the dose of the daidzein, since the daidzein is difficult to dissolve in water, 50% propylene glycol aqueous solution is used to dissolve, and other compounds were dissolved with water to achieve a suitable concentration), 20 min after administration, the mice were put into a 250 ml grinding jar (where 10 g soda lime was placed), with one mouse in each jar, and the jar was capped tightly after the mouse was put into the jar, then the survival time of the mice was immediately recorded by a stopwatch.

decapitated mice = experiment: Acute cerebral ischemia in mice (gasping time of decapitated mice); type: in vivo; conditions: for effect on acute ischemia tolerance time, in words: conclusion from table 5, mice, intraperitoneal; for Gasping times (X ± s) / Prolongation rates (gasping time): decapitated mice; for Gasping times (X ± s): 20 min after administration, n = 10, control group 18.5 ± 3.1; for Prolongation rates (gasping time): versus control group
Method: 70 mice were taken and randomly divided into seven groups, except the blank group which was not administered and the saline group which was administered with the same volume of saline, the remaining five groups were respectively injected intraperitoneally with 25 mg/kg pueraria daidzein, 36 mg/kg compound of the example of the present application, 47 mg/kg 4,7-disubstituted daidzein, 36 mg/kg 4-substituted daidzein and 36 mg/kg USP compound (the converted dose of each compound is equivalent to the dose of the daidzein, since the daidzein is difficult to dissolve in water, 50% propylene glycol aqueous solution is used to dissolve, and other compounds were dissolved with water to achieve a suitable concentration), 20 min after administration, the mice were decapitated rapidly from behind the ear, then the time starting from decapitation to the last gasp was recorded.

[4] = system: euglobulin lysis time of guinea pigs; experiment: Euglobulin lysis time of guinea pigs (antithrombotic effect research 1); type: in vivo; conditions: for antithrombotic effect after oral administration, in words: conclusion from table 6, guinea pigs; for Optimal dissolution times (X ± s), after administration / Fibrinolytic enzyme activities, after administration / Optimal dissolution times (X ± s), before administration / Fibrinolytic enzyme activities, before administration: guinea pigs; for Optimal dissolution times (X ± s), after administration: 30 minutes after last administration; for Fibrinolytic enzyme activities, after administration / Fibrinolytic enzyme activities, before administration: =10000/optimal dissolution time (min); for Optimal dissolution times (X ± s), before administration / Fibrinolytic enzyme activities, before administration: baseline before administration
Method: 30 guinea pigs were taken and randomly divided into five groups, each group was administered intragastrically with 25 mg/kg pueraria daidzein, 36 mg/kg compound of the example of the present application, 47 mg/kg 4,7-disubstituted daidzein, 36 mg/kg 4-substituted daidzein, and 36 mg/kg USP compound (the converted dose of each compound is equivalent to the dose of the daidzein, since the daidzein is difficult to dissolve in water, 50% propylene glycol aqueous solution is used to dissolve, and other compounds were dissolved with water to achieve a suitable concentration), 1.5 ml blood was taken from the heart before administration, and after 7 consecutive days of administration, 1.5 ml blood was taken from the heart 30 minutes after the last administration, and put into a sodium citrate anti-cruor tube, and the plasma was separated by centrifugation, then 0.5 ml plasma was taken and added with 9 ml distilled water and 0.1 ml of 1% acetic acid solution, and the mixture was centrifugated after being refrigerated for 30 minutes, then the resulting precipitate was dissolved with 0.5 ml sodium borate buffer (pH9.0), and the dissolution time was recorded as euglobulin lysis time, it can be obtained through calculation that fibrinolytic enzyme activity (u)=10000/optimal dissolution time (min).

thrombus = experiment: Formation time and length of thrombus in rabbit blood, thrombosis instrument (antithrombotic effect research 2); type: in vivo, rabbits; conditions: for antithrombotic effect after oral administration, in words: conclusion from table 7, rabbits; for Lengths of thrombus, after administration / Thrombus formation times (X ± s), after administration / Lengths of thrombus, before administration / Thrombus formation times (X ± s), before administration: rabbits; for Lengths of thrombus, after administration: 15 minutes rotation; for Thrombus formation times (X ± s), after administration: 30 minutes after last administration; for Lengths of thrombus, before administration / Thrombus formation times (X ± s), before administration: baseline before administration
Method: 30 rabbits were taken and randomly divided into five groups, each group was administered intragastrically with 15 mg/kg pueraria daidzein, 22 mg/kg compound of the example of the present application, 28 mg/kg 4,7-disubstituted daidzein, 22 mg/kg 4-substituted daidzein and 22 mg/kg USP compound (the converted dose of each compound is equivalent to the dose of the daidzein, since the daidzein is difficult to dissolve in water, 50% propylene glycol aqueous solution is used to dissolve, and other compounds were dissolved with water to achieve a suitable concentration), 2 ml blood was taken from the heart before administration, and after 7 consecutive days of administration, 2 ml blood was taken from the heart 30 minutes after the last administration, and injected immediately into the rotating ring of the thrombosis instrument, and rotated at 15-17 rpm under 37° C., and the rotating time of the thrombus alone with the ring was recorded, which is defined as thrombus formation time of fibrin, the rotation was stopped after 15 minutes, the thrombus was taken out, and the length of the thrombus was measured.

[5] = 15 mg/kg intragastrically 7 consecutive days
[6] = 36 mg/kg intragastrically 7 consecutive days
[7] = 36 mg/kg intragastrically 7 days
[8] = 22 mg/kg intragastrically 7 consecutive days

| Structure (SMILES) | solubility (solvent equilibrium experiment) [1] | Survival times (X ± s) ([3]; 36 mg/kg intraperitoneally) | Gasping times (X ± s) (decapitated mice; 36 mg/kg intraperitoneally) | Prolongation rates (gasping time) (decapitated mice; 36 mg/kg intraperitoneally) | Optimal dissolution times (X ± s), after administration [4, 6] | Fibrinolytic enzyme activities, after administration [4, 7] | Optimal dissolution times (X ± s), before administration ([4]; 36 mg/kg group) | Fibrinolytic enzyme activities, before administration ([4]; 36 mg/kg group) | Lengths of thrombus, after administration (thrombus; [8]) | Thrombus formation times (X ± s), after administration (thrombus; [8]) | Lengths of thrombus, before administration (thrombus; 22 mg/kg group) | Thrombus formation times (X ± s), before administration (thrombus; 22 mg/kg group) | further results |
| --- | --- | --- | --- | --- | --- | --- | --- | --- | --- | --- | --- | --- | --- |
| CCN(CC)CC(=O)Oc1ccc2c(=O)c(-c3ccc(O)cc3)coc2c1 [7-O—N,N-diethyl-aminoacetyl daidzein hydrochloride] | – | – | – | – | – | – | – | – | – | – | – | – | solubility, in words ([1]; conclusion from table 1, methanol 25°C): higher solubility; solubility (solvent equilibrium experiment) ([1]; hydrochloride): 25 mg/g; antithrombotic effect, in words (rat in vitro thrombosis; conclusion from table 2 and table 3 (oral and in vitro administration, rat)): good antithrombotic effect |
| CC(=O)Oc1ccccc1C(=O)O [Acetylsalicylic acid, acetylsalicylic acid] | – | – | – | – | – | – | – | – | – | – | – | – | inhibition at 45 mg/kg (rat in vitro thrombosis; po, rat, 45 mg/kg, positive control, read-out: Thrombosis inhibition rates): 58.7%; Wet weights of thrombus (rat in vitro thrombosis; rat, 45 mg/kg, positive control, n = 10, saline group 30.18 ± 3.12): 11.38 ± 1.47 mg; inhibition at 1.46 mg/kg [2]: 32.1% |
| O=c1c(-c2ccc(O)cc2)coc2cc(O)ccc12 [Pueraria daidzein, daidzein] | 16.8 mg/g | – | – | – | – | – | – | – | – | – | – | – | effect on hypoxia tolerance time, in words [3]: poor effect; Survival times (X ± s) ([3]; 25 mg/kg intraperitoneally): 28.1 ± 5.3 min; Prolongation rates (survival time) ([3]; 25 mg/kg intraperitoneally): 24.9%; effect on acute ischemia tolerance time, in words (decapitated mice): poor effect; Gasping times (X ± s) (decapitated mice; 25 mg/kg intraperitoneally): 23.1 ± 6.2 s; Prolongation rates (gasping time) (decapitated mice; 25 mg/kg intraperitoneally): 24.9%; antithrombotic effect after oral administration, in words [4]: weak antithrombotic effect; Optimal dissolution times (X ± s), after administration ([4]; 25 mg/kg intragastrically 7 consecutive days): 27.3 ± 8.4 min; Fibrinolytic enzyme activities, after administration ([4]; 25 mg/kg intragastrically 7 days): 366.3 u; Optimal dissolution times (X ± s), before administration ([4]; 25 mg/kg group): 34.5 ± 10.1 min; Fibrinolytic enzyme activities, before administration ([4]; 25 mg/kg group): 289.9 u; antithrombotic effect after oral administration, in words (thrombus): weak antithrombotic effect; Lengths of thrombus, after administration (thrombus; [5]): 12.8 ± 1.49 cm; Thrombus formation times (X ± s), after administration (thrombus; [5]): 7.18 ± 1.27 min; Lengths of thrombus, before administration (thrombus; 15 mg/kg group): 14.2 ± 1.95 cm; Thrombus formation times (X ± s), before administration (thrombus; 15 mg/kg group): 6.21 ± 1.23 min |
| CCN(CC)CC(=O)Oc1ccc(-c2coc3cc(O)ccc3c2=O)cc1 [4-substituted daidzein] | – | 21.1 ± 6.4 min | 20.3 ± 8.1 s | 9.7% | 29.3 ± 5.7 min | 341.3 u | 30.3 ± 9.4 min | 330.0 u | 14.1 ± 2.17 cm | 7.25 ± 1.34 min | 14.7 ± 2.02 cm | 6.44 ± 1.71 min | – |
| CCN(CC)CC(=O)Oc1ccc2c(=O)c(-c3ccc(O)cc3)coc2c1 [7-O-N,N-diethyl-aminoacetyl daidzein, 7-O—N,N-diethyl-aminoacetyl daidzein] | 16.3 mg/g | – | – | – | – | – | – | – | – | – | – | – | – |
| CCN(CC)CC(=O)Oc1ccc2c(=O)c(-c3ccc(O)cc3)coc2c1 | – | 35.1 ± 6.6 min | 26.7 ± 4.8 s | 44.3% | 20.6 ± 5.5 min | 485.4 u | 33.6 ± 11.1 min | 297.6 u | 10.7 ± 1.96 cm | 8.17 ± 1.54 min | 14.9 ± 1.27 cm | 6.29 ± 1.31 min | effect on hypoxia tolerance time, in words [3]: significantly prolong; Prolongation rates (survival time) ([3]; 36 mg/kg intraperitoneally): 56%; effect on acute ischemia tolerance time, in words (decapitated mice): significantly prolong; antithrombotic effect after oral administration, in words [4]: significant efficacy; antithrombotic effect after oral administration, in words (thrombus): significant efficacy |
| CN(C)CCCC(=O)Oc1ccc2c(=O)c(-c3ccc(O)cc3)coc2c1 [USP compound, 7-O—N,N-dimethyl-aminobutyryl daidzein] | – | 24.6 ± 5.7 min | 23.5 ± 7.2 s | 27% | 25.7 ± 7.7 min | 389.1 u | 35.5 ± 8.2 min | 281.7 u | 11.8 ± 2.01 cm | 7.31 ± 1.72 min | 14.1 ± 3.84 cm | 6.37 ± 1.72 min | Prolongation rates (survival time) ([3]; 36 mg/kg intraperitoneally): 9.3% |
| O=C(CCl)Oc1ccc2c(=O)c(-c3ccc(O)cc3)coc2c1 [7-O-chloroacetyl daidzein] | 17.6 mg/g | – | – | – | – | – | – | – | – | – | – | – | – |
